Laboratory results as given in the supplement of paper PMC11061612.

How the values were obtained:
[1] = compound: C=CCn1c(=O)c2cnc(Nc3ccc(N4CCN(C)CC4)cc3)nc2n1-c1cccc(C(C)(C)O)n1 [AZD1775]; details: max 3 µM
Outline: (§1)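 Viability was measured with CellTiter-Glo 2.0 luminescence after 72 hours of dosing at a final DMSO of typically 0.2%, and scaled between blank-well and DMSO-well means. Beforehand, cancer cell lines sat 24 hours at 37°C and 5% CO2 in 1536-well plates in 7.5 μl DMEM/F12 or RPMI with 10% FBS. A non-linear mixed effects model fitted two-parameter logistic curves to the dose responses. The single-agent IC50 comes from these fits.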

[2] = compound: N#Cc1cnc(Nc2cc(NC[C@H]3CNCCO3)c(C(F)(F)F)cn2)cn1 [SRA737]; details: max 10 µM
Outline: as §1

[3] = compound: CS(=O)(=O)CCNCc1ccc(-c2ccc3ncnc(Nc4ccc(OCc5cccc(F)c5)c(Cl)c4)c3c2)o1 [Lapatinib]; details: max 10 µM
Outline: as §1

[4] = compound: CN(CC[C@H](CSC1=CC=CC=C1)NC2=C(C=C(C=C2)S(=O)(=O)NC(=O)C3=CC=C(C=C3)N4CCC(CC4)[C@H](C5=CC=CC=C5C6=CC=C(C=C6)Cl)O)S(=O)(=O)C(F)(F)F)CCO [AZD4320]; details: max 1 µM
Outline: as §1

[5] = compound: CCc1c2c(nc3ccc(O)cc13)-c1cc3c(c(=O)n1C2)COC(=O)[C@]3(O)CC [SN-38]; details: max 0.3 µM
Outline: as §1

[6] = compound: C1CC(C1)(C(=O)[O-])C(=O)[O-].N.N.[Pt+2] [Carboplatin]; details: max 10 µM
Outline: as §1

[7] = compound: COc1cc2ncnc(Nc3ccc(F)c(Cl)c3)c2cc1OCCCN1CCOCC1 [Gefitinib]; details: max 10 µM
Outline: as §1

[8] = compound: CC(=O)c1c(C)c2cnc(Nc3ccc(N4CCNCC4)cn3)nc2n(C2CCCC2)c1=O [Palbociclib]; details: max 10 µM
Outline: as §1

[9] = compound: CC1=C(C(=CC=C1)Cl)NC(=O)C2=CN=C(S2)NC3=CC(=NC(=N3)C)N4CCN(CC4)CCO [Dasatinib]; details: max 2 µM
Outline: as §1

[10] = compound: CC(=O)Nc1cccc(-n2c(=O)n(C3CC3)c(=O)c3c(Nc4ccc(I)cc4F)n(C)c(=O)c(C)c32)c1 [Trametinib]; details: max 1 µM
Outline: as §1

[11] = compound: C1CN(CCC1(C(=O)N[C@@H](CCO)C2=CC=C(C=C2)Cl)N)C3=NC=NC4=C3C=CN4 [AZD5363]; details: max 10 µM
Outline: as §1

[12] = compound: COc1nnc2ccc(N3CCC(c4ccc(OCCN5CCN(C)C(=O)[C@H]5C)cc4)CC3)nn12 [AZD5153]; details: max 1 µM
Outline: as §1

[13] = compound: NC1(c2ccc(-c3nc4ccn5c(=O)[nH]nc5c4cc3-c3ccccc3)cc2)CCC1 [MK-2206]; details: max 10 µM
Outline: as §1

[14] = compound: CC(C)n1c(=O)n(C)c2cnc3cc(F)c(-c4ccc(OCCCN5CCCCC5)nc4)cc3c21 [AZD1390]; details: max 0.3 µM
Outline: as §1

[15] = compound: O=C(c1cc(Cc2n[nH]c(=O)c3ccccc23)ccc1F)N1CCN(C(=O)C2CC2)CC1 [Olaparib]; details: max 10 µM
Outline: as §1

[16] = compound: O=C(Nc1ccc2[nH]nc(-c3ccncc3)c2c1)[C@@H]1CCN(CC(=O)N2CCN(c3ccc(-c4ncccn4)cc3)CC2)C1; details: max 5 µM
Outline: as §1

[17] = compound: C[C@@H](c1ccc2nccn2c1)n1nnc2ncc(-c3cnn(C)c3)nc21 [Savolitinib]; details: max 1 µM
Outline: as §1

[18] = compound: Cn1cnc2c(F)c(Nc3ccc(Br)cc3Cl)c(C(=O)NOCCO)cc21 [Selumetinib]; details: max 10 µM
Outline: as §1

[19] = compound: COc1cc([C@@H]2c3cc4c(cc3[C@@H](O[C@@H]3O[C@@H]5CO[C@@H](C)O[C@H]5[C@H](O)[C@H]3O)[C@H]3COC(=O)[C@H]23)OCO4)cc(OC)c1O [Etoposide]; details: max 10 µM
Outline: as §1

[20] = compound: C[C@@H](Oc1cc(-c2cnn(C3CCNCC3)c2)cnc1N)c1c(Cl)ccc(F)c1Cl [Crizotinib]; details: max 10 µM
Outline: as §1

[21] = compound: Cc1cc2ncnn2cc1Nc1ncc2c(n1)n(C1CCOCC1)c(=O)n2C [AZD7648]; details: max 10 µM
Outline: as §1

[22] = compound: CCN(CCO)CCCOc1ccc2c(Nc3cc(CC(=O)Nc4cccc(F)c4)[nH]n3)ncnc2c1 [AZD2811]; details: max 1 µM
Outline: as §1

[23] = compound: Nc1ccn([C@@H]2O[C@H](CO)[C@@H](O)C2(F)F)c(=O)n1 [Gemcitabine]; details: max 0.3 µM
Outline: as §1

[24] = compound: CC1(C)CCC(CN2CCN(c3ccc(C(=O)NS(=O)(=O)c4ccc(NCC5CCOCC5)c([N+](=O)[O-])c4)c(Oc4cnc5[nH]ccc5c4)c3)CC2)=C(c2ccc(Cl)cc2)C1 [Venetoclax]; details: max 1 µM
Outline: as §1

[25] = compound: COc1cccc2c1C(=O)c1c(O)c3c(c(O)c1C2=O)C[C@@](O)(C(=O)CO)C[C@@H]3O[C@H]1C[C@H](N)[C@H](O)[C@H](C)O1 [Doxorubicin]; details: max 1 µM
Outline: as §1

[26] = compound: C[C@@H](Nc1cc(F)cc(F)c1)c1cc(C(=O)N(C)C)cc2c(=O)cc(N3CCOCC3)oc12 [AZD8186]; details: max 10 µM
Outline: as §1

[27] = compound: COc1cccc(OCCCN)c1-c1cc(Nc2cnc(C#N)cn2)n[nH]1 [Prexasertib]; details: max 1 µM
Outline: as §1

[28] = compound: CC1=CN2[C@@H](C1)C=NC3=CC(=C(C=C3C2=O)OC)OCCCCCOC4=C(C=C5C(=C4)N=C[C@@H]6CC(=CN6C5=O)C)OC [SG3199]; details: max 0.001 µM
Outline: as §1

[29] = compound: COc1cc(Nc2ncc3c(n2)-c2ccc(Cl)cc2C(c2c(F)cccc2OC)=NC3)ccc1C(=O)O [Alisertib]; details: max 10 µM
Outline: as §1

[30] = compound: Cc1c2c(nn1C)CSCc1cc(n(C)n1)CSc1cc(c3ccccc3c1)OCCCc1c(C(=O)O)n(C)c3c-2c(Cl)ccc13 [AZD5991]; details: max 1 µM
Outline: as §1

[31] = compound: CN(C)CCCOc1ccc(-c2ccc3ncc4c(c3c2)n(C2CCOCC2)c(=O)n4C)cn1 [AZD0156]; details: max 3 µM
Outline: as §1

[32] = compound: CC(=O)O[C@H]1C(=O)[C@@]2(C)[C@H]([C@H](OC(=O)c3ccccc3)[C@]3(O)C[C@H](OC(=O)[C@H](O)[C@@H](NC(=O)c4ccccc4)c4ccccc4)C(C)=C1C3(C)C)[C@]1(OC(C)=O)CO[C@@H]1C[C@@H]2O [Paclitaxel]; details: max 3 µM
Outline: as §1

[33] = compound: O=c1[nH]cc(F)c(=O)[nH]1 [5-Fluorouracil]; details: max 20 µM
Outline: as §1

[34] = compound: Cc1nc(-c2cn3c(n2)-c2ccc(-c4cnn(C(C)(C)C(N)=O)c4)cc2OCC3)n(C(C)C)n1 [Taselisib]; details: max 10 µM
Outline: as §1

[35] = compound: C[C@@H]1COCCN1C2=NC(=NC(=C2)C3(CC3)[S@](=N)(=O)C)C4=C5C=CNC5=NC=C4 [AZD6738]; details: max 10 µM
Outline: as §1

| Cell Line | IC50, cell viability 72 h [1] [µM] | IC50, cell viability 72 h [2] [µM] | IC50, cell viability 72 h [3] [µM] | IC50, cell viability 72 h [4] [µM] | IC50, cell viability 72 h [5] [µM] | IC50, cell viability 72 h [6] [µM] | IC50, cell viability 72 h [7] [µM] | IC50, cell viability 72 h [8] [µM] | IC50, cell viability 72 h [9] [µM] | IC50, cell viability 72 h [10] [µM] | IC50, cell viability 72 h [11] [µM] | IC50, cell viability 72 h [12] [µM] | IC50, cell viability 72 h [13] [µM] | IC50, cell viability 72 h [14] [µM] | IC50, cell viability 72 h [15] [µM] | IC50, cell viability 72 h [16] [µM] | IC50, cell viability 72 h [17] [µM] | IC50, cell viability 72 h [18] [µM] | IC50, cell viability 72 h [19] [µM] | IC50, cell viability 72 h [20] [µM] | IC50, cell viability 72 h [21] [µM] | IC50, cell viability 72 h [22] [µM] | IC50, cell viability 72 h [23] [µM] | IC50, cell viability 72 h [24] [µM] | IC50, cell viability 72 h [25] [µM] | IC50, cell viability 72 h [26] [µM] | IC50, cell viability 72 h [27] [µM] | IC50, cell viability 72 h [28] [µM] | IC50, cell viability 72 h [29] [µM] | IC50, cell viability 72 h [30] [µM] | IC50, cell viability 72 h [31] [µM] | IC50, cell viability 72 h [32] [µM] | IC50, cell viability 72 h [33] [µM] | IC50, cell viability 72 h [34] [µM] | IC50, cell viability 72 h [35] [µM] |
| --- | --- | --- | --- | --- | --- | --- | --- | --- | --- | --- | --- | --- | --- | --- | --- | --- | --- | --- | --- | --- | --- | --- | --- | --- | --- | --- | --- | --- | --- | --- | --- | --- | --- | --- | --- |
| NCI-H2023 (Non-Small Cell Lung Carcinoma) | 2.02 | > 10 | > 10 | > 1 | 0.11 | > 10 | > 10 | > 10 | > 2 | > 1 | > 10 | > 1 | > 10 | > 0.3 | > 10 | > 5 | > 1 | > 10 | > 10 | > 10 | > 10 | > 1 | 0.134 | > 1 | 0.225 | > 10 | 0.0306 | > 0.001 | > 10 | > 1 | > 3 | 0.531 | 11.9 | 3.87 | 3.5 |
| NCI-H2452 (Mesothelioma) | 0.71 | > 10 | > 10 | > 1 | > 0.3 | > 10 | > 10 | > 10 | 0.531 | > 1 | > 10 | > 1 | > 10 | > 0.3 | > 10 | > 5 | > 1 | > 10 | > 10 | > 10 | > 10 | > 1 | > 0.3 | > 1 | > 1 | > 10 | 0.244 | > 0.001 | 8.63 | > 1 | > 3 | 0.097 | > 20 | > 10 | > 10 |
